# Measurements as given in patent US12396459B2, “Synergistically effective herbicide composition comprising pyridate and at least one defined 4-HPPD inhibitor” (BELCHIM CROP PROTECTION NV, priority 2018, dated 2025).
# Experiments:
# Format in all cases: in vivo
# Sinapis arvensis = test: Field trial post-emergence in maize: SINAR; settings: 13-14 DAA; # = 1; g a.c./ha: PYR 450, TOP 12.4, PYR + TOP 450 + 12.4
# Description: (§1) Herbicidal activity of herbicide compositions according to the first aspect of the present invention with regard to different types of unwanted vegetation was determined during trials performed on test fields (field trials). Individual compositions comprising pyridate and individual compositions comprising a defined 4-HPPD inhibitor are compared with a herbicide composition according to the invention comprising both pyridate and a defined 4-HPPD inhibitor. The expected activity of the combination of the active compounds pyridate and a defined 4-HPPD inhibitor is calculated according to above mentioned calculation method by Colby, in order to evaluate a synergistic effect between pyridate and a defined 4-HPPD inhibitor.
# (§2) Herbicidal activity was determined by applying herbicide compositions on emerged unwanted vegetation on fields where maize was cultivated. Pyridate and a defined 4-HPPD inhibitor were applied as a tank mixture by mixing these active compounds prior to use in a spray tank. The corresponding mixture was in the form of a spray liquor. […] At a specified number of days after application (DAA), the degree of damage to the unwanted vegetation is rated in % of plants of unwanted vegetation that were killed, which was assessed by visually controlling the plants.
# Digitaria sanguinalis = test: Field trial post-emergence in maize: DIGSA; settings: g a.c./ha: PYR 300, MES 100, PYR + MES 300 + 90
# Description: as §1
# (§3) Herbicidal activity was determined by applying herbicide compositions on emerged unwanted vegetation on fields where maize was cultivated. Pyridate and a defined 4-HPPD inhibitor were applied as a tank mixture by mixing these active compounds prior to use in a spray tank. The corresponding mixture was in the form of a spray liquor. Besides, spray liquors of individual compositions comprising pyridate and of individual compositions comprising a defined 4-HPPD inhibitor were used. Test plants of unwanted vegetation with a growth stage corresponding to BBCH 10-18 (according to the extended BBCH-scale) were sprayed with the active compound preparations such that particular desired amounts of active compounds are applied per unit area. Spray liquor was diluted with water to arrive at an application volume of 50 to 450 L/ha. At a specified number of days after application (DAA), the degree of damage to the unwanted vegetation is rated in % of plants of unwanted vegetation that were killed, which was assessed by visually controlling the plants.
# Atriplex patula = test: Field trial post-emergence in maize: ATXPA
# Description: as §1, §3
# (§4) Example 1 concerns a herbicide composition comprising a combination of pyridate and mesotrione, which was applied post-emergence on unwanted vegetation on a field where maize was cultivated, according to the test conditions mentioned above.
# Rumex obtusifolius = test: Field trial post-emergence in maize: RUMOB
# Description: as §1, §3, §4
# Xanthium spinosum = test: Field trial post-emergence in maize: XANSP; settings: 7-14 DAA; # = 3; g a.c./ha: PYR 300, MES 100, PYR + MES 300 + 90
# Description: as §1, §2
# Poa annua [1] = test: Field trial post-emergence in maize: POAAN; settings: for herbicidal effect (h.e.): g a.c./ha: PYR 300, MES 100, PYR + MES 300 + 90
# Description: as §1, §3
# Amaranthus retroflexus = test: Field trial post-emergence in maize: AMARE; settings: 13-14 DAA, # = 1
# Description: as §1, §3
# Chenopodium album [2] = test: Field trial post-emergence in maize: CHEAL; settings: 13-14 DAA, # = 1
# Description: as §1, §3
# Abutilon theophrasti = test: Field trial post-emergence in maize: ABUTH; settings: 31-48 DAA; # = 2; g a.c./ha: PYR 300, MES 100, PYR + MES 300 + 90
# Description: as §1, §2
# Bassia scoparia = test: Field trial post-emergence in maize: KCHSC; settings: 13-14 DAA; # = 2; g a.c./ha: PYR 450, TEM 38, PYR + TEM 450 + 38
# Description: as §1, §2
# Solanum nigrum = test: Field trial post-emergence in maize: SOLNI; settings: for herbicidal effect (h.e.): g a.c./ha: PYR 300, MES 100, PYR + MES 300 + 90
# Description: as §1, §3
# Erodium ciconium = test: Field trial post-emergence in maize: EROCC
# Description: as §1, §3, §4
# Chenopodium album [3] = test: Examples 6-8 herbicidal effect: CHEAL; settings: 7 DAA
# Galium aparine = test: Field trial post-emergence in maize: GALAP
# Description: as §1, §3, §4
# Lamium purpureum = test: Field trial post-emergence in maize: LAMPU
# Description: as §1, §3, §4
# Poa annua [4] = test: Examples 6-8 herbicidal effect: POAAN; settings: 7 DAA
# Sonchus oleraceus = test: Field trial post-emergence in maize: SONOL; settings: # = 1, g a.c./ha: PYR 300, MES 100, PYR + MES 300 + 90
# Description: as §1, §3
# Lamium amplexicaule = test: Example 6 herbicidal effect: LAMAM; settings: 7 DAA
# Echinochloa crus-galli = test: Examples 6-8 herbicidal effect: ECHCG; settings: 7 DAA
# [5] = g a.c./ha: PYR 450, TOP 12.4, PYR + TOP 450 + 12.4
# [6] = g a.c./ha: PYR 10, TEM 22, PYR + TEM 10 + 100
# [7] = g a.c./ha: PYR 300, PYR + MES 300 + 80
# [8] = g a.c./ha: PYR 300, SCT 300, PYR + SCT 300 + 300
# [9] = g a.c./ha: PYR 300, TEM 100, PYR + TEM 300 + 100
# [10] = g a.c./ha: PYR 450, SCT 450, PYR + SCT 300 + 450
# [11] = g a.c./ha: PYR 600, PYR + SCT 600 + 300
# [12] = g a.c./ha: PYR 900, TEM 44, PYR + TEM 900 + 44
smiles,measurement,setting,value
"CCCCCCCCSC(=O)Oc1cc(Cl)nnc1-c1ccccc1 [PYR, (6-chloro-3-phenylpyridazin-4-yl) octylsulfanylformate]",herbicidal effect (h.e.),Sinapis arvensis,57%
same,herbicidal effect (h.e.),"Digitaria sanguinalis; 7-14 DAA, # = 2",30%
same,herbicidal effect (h.e.),"Digitaria sanguinalis; 18-28 DAA, # = 2",24%
same,herbicidal effect (h.e.),"Digitaria sanguinalis; 31-48 DAA, # = 1",48%
same,PYR h.e.,Atriplex patula; ATXPA 24-31 DAA 300 g a.c./ha,43%
same,PYR h.e.,Atriplex patula; ATXPA 24-31 DAA 600 g a.c./ha,49%
same,PYR h.e.,Rumex obtusifolius; RUMOB 14-20 DAA 300 g a.c./ha,20%
same,PYR h.e.,Rumex obtusifolius; RUMOB 14-20 DAA 600 g a.c./ha,30%
same,PYR h.e.,Rumex obtusifolius; RUMOB 14-20 DAA 900 g a.c./ha,55%
same,herbicidal effect (h.e.),Xanthium spinosum,5%
same,herbicidal effect (h.e.),"Poa annua [1]; 7-14 DAA, # = 2",25%
same,herbicidal effect (h.e.),"Poa annua [1]; 18-28 DAA, # = 3",17%
same,herbicidal effect (h.e.),"Poa annua [1]; 31-48 DAA, # = 2",17%
same,PYR h.e.,Poa annua [1]; POAAN 14-20 DAA 300 g a.c./ha,7%
same,PYR h.e.,Poa annua [1]; POAAN 14-20 DAA 600 g a.c./ha,17%
same,PYR h.e.,Poa annua [1]; POAAN 14-20 DAA 900 g a.c./ha,36%
same,PYR h.e.,Poa annua [1]; POAAN 24-31 DAA 300 g a.c./ha,5%
same,PYR h.e.,Poa annua [1]; POAAN 24-31 DAA 600 g a.c./ha,13%
same,PYR h.e.,Poa annua [1]; POAAN 24-31 DAA 900 g a.c./ha,28%
same,herbicidal effect (h.e.),"Amaranthus retroflexus; g a.c./ha: PYR 450, MES 144, PYR + MES 450 + 144",72%
same,herbicidal effect (h.e.),Amaranthus retroflexus; [5],72%
same,herbicidal effect (h.e.),"Chenopodium album [2]; g a.c./ha: PYR 450, TEM 38, PYR + TEM 450 + 38",49%
same,herbicidal effect (h.e.),Chenopodium album [2]; [5],35%
same,herbicidal effect (h.e.),Abutilon theophrasti,73%
same,herbicidal effect (h.e.),Bassia scoparia,66%
same,herbicidal effect (h.e.),"Solanum nigrum; 18-28 DAA, # = 7",58%
same,herbicidal effect (h.e.),"Solanum nigrum; 31-48 DAA, # = 6",55%
same,PYR h.e.,Solanum nigrum; SOLNI 14-20 DAA 300 g a.c./ha,75%
same,PYR h.e.,Solanum nigrum; SOLNI 14-20 DAA 600 g a.c./ha,88%
same,PYR h.e.,Erodium ciconium; EROCC 14-20 DAA 300 g a.c./ha,89%
same,PYR h.e.,Erodium ciconium; EROCC 14-20 DAA 600 g a.c./ha,96%
same,herbicidal effect (h.e.),Chenopodium album [3]; [6],0%
same,herbicidal effect (h.e.),Chenopodium album [3]; [7],6%
same,herbicidal effect (h.e.),Chenopodium album [3]; [8],3%
same,herbicidal effect (h.e.),Chenopodium album [3]; [9],5%
same,herbicidal effect (h.e.),Chenopodium album [3]; [10],10%
same,herbicidal effect (h.e.),Chenopodium album [3]; [11],22%
same,herbicidal effect (h.e.),Chenopodium album [3]; [12],90%
same,PYR h.e.,Galium aparine; GALAP 14-20 DAA 300 g a.c./ha,20%
same,PYR h.e.,Galium aparine; GALAP 14-20 DAA 600 g a.c./ha,30%
same,PYR h.e.,Galium aparine; GALAP 14-20 DAA 900 g a.c./ha,35%
same,PYR h.e.,Galium aparine; GALAP 24-31 DAA 300 g a.c./ha,18%
same,PYR h.e.,Galium aparine; GALAP 24-31 DAA 600 g a.c./ha,30%
same,PYR h.e.,Galium aparine; GALAP 24-31 DAA 900 g a.c./ha,38%
same,PYR h.e.,Lamium purpureum; LAMPU 14-20 DAA 300 g a.c./ha,28%
same,PYR h.e.,Lamium purpureum; LAMPU 14-20 DAA 600 g a.c./ha,60%
same,PYR h.e.,Lamium purpureum; LAMPU 14-20 DAA 900 g a.c./ha,65%
same,PYR h.e.,Lamium purpureum; LAMPU 24-31 DAA 300 g a.c./ha,14%
same,PYR h.e.,Lamium purpureum; LAMPU 24-31 DAA 600 g a.c./ha,46%
same,PYR h.e.,Lamium purpureum; LAMPU 24-31 DAA 900 g a.c./ha,67%
same,herbicidal effect (h.e.),Poa annua [4]; [6],0%
same,herbicidal effect (h.e.),Poa annua [4]; [7],3%
same,herbicidal effect (h.e.),Poa annua [4]; [8],2%
same,herbicidal effect (h.e.),Poa annua [4]; [9],10%
same,herbicidal effect (h.e.),Poa annua [4]; [10],2%
same,herbicidal effect (h.e.),Poa annua [4]; [11],0%
same,herbicidal effect (h.e.),Poa annua [4]; [12],0%
same,herbicidal effect (h.e.),Sonchus oleraceus; 7-14 DAA,93%
same,herbicidal effect (h.e.),Sonchus oleraceus; 18-28 DAA,51%
same,herbicidal effect (h.e.),Sonchus oleraceus; 31-48 DAA,37%
same,herbicidal effect (h.e.),Lamium amplexicaule; [6],0%
same,herbicidal effect (h.e.),Lamium amplexicaule; [9],5%
same,herbicidal effect (h.e.),Lamium amplexicaule; [12],10%
same,herbicidal effect (h.e.),Echinochloa crus-galli; [6],0%
same,herbicidal effect (h.e.),Echinochloa crus-galli; [7],0%
same,herbicidal effect (h.e.),Echinochloa crus-galli; [8],0%
same,herbicidal effect (h.e.),Echinochloa crus-galli; [9],0%
same,herbicidal effect (h.e.),Echinochloa crus-galli; [10],0%
same,herbicidal effect (h.e.),Echinochloa crus-galli; [11],0%
same,herbicidal effect (h.e.),Echinochloa crus-galli; [12],5%
